Where only a bound is given, the exact number is not on record here.

The target of one series is T1, Papain (Carica papaya, UniProt P00784).
T1 sequence (P00784 134-345): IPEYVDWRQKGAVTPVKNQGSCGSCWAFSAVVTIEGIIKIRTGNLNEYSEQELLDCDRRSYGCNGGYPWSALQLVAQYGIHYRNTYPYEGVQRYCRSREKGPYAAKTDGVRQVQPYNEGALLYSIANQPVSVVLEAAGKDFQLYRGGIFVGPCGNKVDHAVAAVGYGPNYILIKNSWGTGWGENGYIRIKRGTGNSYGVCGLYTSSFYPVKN
As to the kind of experiment: Papain inhibition, Ki by Dixon plot (Table PKC1). Type of series: biochemical. The note with it: 0.05M Tris-HCl pH 7.5, 2 mM EDTA, 5 mM cysteine, 1% DMSO, 25° C., substrate Nα-Benzoyl-Arg-AMC; read-out: Ki P (Papain). The protocol:
(§1) Various concentrations of inhibitors in dimethylsulfoxide (DMSO) were added to the assay mixture, which contained buffer and substrate. The reaction was started by the addition of the enzyme and the hydrolysis rates were followed spectrophotometrically or fluorimetrically. 88 mM KH2 PO4, 12 mM Na2 HPO4, 1.33 mM EDTA, 2.7 mM cysteine, pH 6.0 was used as a buffer for cathepsin B; and 20 mM Hepes, 10 mM CaCl2, 10 mM β-mercaptoethanol, pH 7.2 buffer was utilized for calpain I and calpain II.
(§2) All peptide thioester hydrolysis rates were measured with assay mixtures containing 4,4'-dithiodipyridine [e324=19800 M-1 cm-1; Grasetti & Murray, Arch. Biochem. Biophys. 119, pp 41-49 (1967)]. Papain was assayed with Bz-Arg-AMC or Bz-Arg-NA [Kanaoka et al., Chem. Pharm. Bull. 25, 3126-3128 (1977)], and the AMC (7-amino-4-methylcoumarin) release was followed fluorimetrically (excitation at 380 nm, and emission at 460 nm). Cathepsin B was assayed with Z-Arg-Arg-AFC [Barrett and Kirschke, Methods Enzymol. 80, 535-561 (1981)], and the AFC (7-amino-4-trifluoromethylcoumarin) release was followed fluorimetrically (excitation at 400 nm, and emission at 505 nm). Calpain I from human erythrocytes and calpain II from rabbit were assayed using Suc-Leu-Tyr-AMC [Sasaki et al., J. Biol. Chem. 259, 12489-12494 (1984), hereby incorporated by reference], and the AMC (7-amino-4-methylcoumarin) release was followed fluorimetrically (excitation at 380 nm, and emission at 460 nm). Enzymatic hydrolysis rates were measured at various substrate and inhibitor concentrations, and Ki values were determined by Dixon plot.
The inhibition constants for papain shown in Table PKC1 were measured in 0.05M Tris-HCl, pH 7.5 buffer, containing 2 mM EDTA, 5 mM cysteine (freshly prepared), 1% DMSO, at 25° C., using N^α -Benzoyl-Arg-AMC as a substrate, except that those values of inhibition constants for papain marked with an "e" in Table PKC1 were measured in 50 mM Tris-HCl, pH 7.5 buffer, containing 20 mM EDTA, 5 mM cysteine, 9% DMSO, at 25° C., using N^α -Benzoyl-Arg-NA as a substrate.

In series [1] the target is T2, Cathepsin B (Bos taurus, UniProt P07688). Nature of the series: Cathepsin B inhibition, Z-Arg-Arg-AFC (Table PKC1). In kind it is biochemical. The note with it: pH 6.0 phosphate buffer, substrate Z-Arg-Arg-AFC; read-out: Ki CB (Cathepsin B). On the procedure: as §1, §2
The subject of the next series is Calpain within platelets. Nature of the series: Platelet membrane permeation assay, spectrin proteolysis (Examples 4A, 4B). The following applies: for inhibition of Calpain within platelets / platelet assay, semi-quantitative: 100 μM; for inhibition of Calpain within platelets: A23187 1 μM; for IC50: concentration at which 50% of the Calpain activation present in controls occurred. In kind it is cell-based, rat. The protocol:
Platelets were isolated by a modification of the method of Ferrell and Martin, J Biol. Chem., 264:20723-20729 (1989), the disclosure of which is hereby incorporated by reference. Blood (15-20 ml) was drawn from male Sprague-Dawley rats into 100 mM EDTA-citrate containing 10 units heparin, and centrifuged 30 minutes at 1600 rpm at room temperature. The plasma was resuspended in 15 ml buffer 1 (136 mM NaCl, 2.7 mM KCl, 0.42 mM NaH2 PO4, 12 mM NaHCO3, 2 mM MgCl2, 2 mg/ml BSA (Sigma), 5.6 mM glucose, 22 mM Na3 Citrate pH 6.5) and platelets were isolated at 2200 rpm at room temperature of 25 minutes. Platelets were resuspended to 10^7 cells/ml in buffer 2 (136 mM NaCl, 2.7 mM KCl, 0.42 NaH2 PO4, 12 mM NaHCO3, 2 mM MgCl, 1 mg/ml BSA, 5.6 mM glucose, 20 mM HEPES pH 7.4) and allowed to "rest" for a minimum of 10 minutes at room temperature before use.
Platelets were incubated for 5 minutes in the presence of inhibitor. In order to provide sufficient intracellular calcium to activate Calpain, the calcium ionophore A23187 was added to a final concentration of 1 μM. After a further 5 minute incubation, the platelets were harvested by centrifugation (1 min 10,000×g) and resuspended in 10% sodium dodecyl sulfate, 10 mM Tris pH=8.0, 5% β-mercaptoethanol, 0.02% bromophenol blue, and heated to 95° C. for 5 min. Samples were subjected to SDS-PAGE on 6% mini gels and transferred to nitrocellulose (Schleicher and Schuell BAS3) for 2 hours at 100 mA/gel in an LKB Novablot. Filters were blocked for 10 minutes in 0.25% gelatin, 1% BSA, 0.25% Triton X100, 0.9% NaCl, 10 mM Tris-Cl pH 7.5, incubated overnight in the same solution containing antibody to rat spectrin, washed 3×10 minutes with 10 mM Tris-Cl pH 7.5, 0.5 % Triton X100, incubated 4 hours in wash buffer plus alkaline phosphatase conjugated goat anti-rabbit antibody (Biorad), and washed as above. Filters were developed using the Biorad AP conjugate substrate kit. Spectrin immunoreactivity on the filters was quantitated by densitometry.

A further series has as its target T3, Calpain I (Homo sapiens, UniProt P07384).
T3 sequence (P07384 1-714): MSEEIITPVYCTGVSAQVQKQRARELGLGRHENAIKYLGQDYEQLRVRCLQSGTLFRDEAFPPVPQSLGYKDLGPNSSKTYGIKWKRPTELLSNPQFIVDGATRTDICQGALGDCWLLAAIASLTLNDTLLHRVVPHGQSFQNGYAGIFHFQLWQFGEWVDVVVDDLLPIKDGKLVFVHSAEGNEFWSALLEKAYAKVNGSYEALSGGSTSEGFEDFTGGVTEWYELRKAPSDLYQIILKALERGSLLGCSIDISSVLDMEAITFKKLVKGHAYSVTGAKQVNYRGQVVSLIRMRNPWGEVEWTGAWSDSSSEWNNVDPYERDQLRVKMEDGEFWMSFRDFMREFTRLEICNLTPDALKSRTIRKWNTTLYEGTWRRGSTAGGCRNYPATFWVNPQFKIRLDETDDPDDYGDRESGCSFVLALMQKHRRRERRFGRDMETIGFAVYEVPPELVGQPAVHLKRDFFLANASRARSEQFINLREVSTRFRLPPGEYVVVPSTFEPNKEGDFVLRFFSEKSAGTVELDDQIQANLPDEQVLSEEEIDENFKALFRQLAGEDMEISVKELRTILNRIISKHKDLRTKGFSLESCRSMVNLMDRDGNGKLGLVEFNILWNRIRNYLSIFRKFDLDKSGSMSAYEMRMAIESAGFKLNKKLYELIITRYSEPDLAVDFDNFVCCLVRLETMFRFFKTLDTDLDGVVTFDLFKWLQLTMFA
T3 sequence (P04632 1-268 partner): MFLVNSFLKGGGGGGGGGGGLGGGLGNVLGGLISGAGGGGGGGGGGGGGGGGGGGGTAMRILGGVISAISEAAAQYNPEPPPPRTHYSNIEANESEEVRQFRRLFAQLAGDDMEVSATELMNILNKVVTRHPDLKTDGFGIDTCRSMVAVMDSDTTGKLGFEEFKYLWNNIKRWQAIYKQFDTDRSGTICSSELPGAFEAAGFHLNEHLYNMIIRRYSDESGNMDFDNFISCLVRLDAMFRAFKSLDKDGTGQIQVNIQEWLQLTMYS
Nature of the series: Calpain I KI (Table 1B(ii)). The following applies: Table 1B(ii). Type of series: biochemical. From the text:
(§3) We tested the ability of an additional group of Peptide Keto-Compounds to inhibit several proteases in order to evaluate their specificity for Calpain.

Another series has as its target Calpain II. Nature of the series: Calpain II KI (Table 1B(ii)). Type of series: biochemical.
Source text: as §3

Series [2] deals with T2, Cathepsin B. As to the kind of experiment: Cathepsin B KI (Table 1B(ii)). The following applies: read-out: KI CathB. In kind it is biochemical.
Source text: as §3

A further series concerns the target Chym (Bos taurus, UniProt P00766). Nature of the series: Chym KI (Table 1B(ii)). Type of series: biochemical.
Source text: as §3

A further series addresses PP Elastase (Sus scrofa, UniProt P00772). Nature of the series: PP Elastase KI (Table 1B(ii)). Type of series: biochemical.
Source text: as §3

A further series is described as follows: Stability in plasma. In kind it is in vitro ADME. The following applies: unit assumed. From the text: We determined the haft-life of several Peptide Keto-Compounds in both plasma and liver homogenates.

Sequence of PP Elastase (P00772 27-266): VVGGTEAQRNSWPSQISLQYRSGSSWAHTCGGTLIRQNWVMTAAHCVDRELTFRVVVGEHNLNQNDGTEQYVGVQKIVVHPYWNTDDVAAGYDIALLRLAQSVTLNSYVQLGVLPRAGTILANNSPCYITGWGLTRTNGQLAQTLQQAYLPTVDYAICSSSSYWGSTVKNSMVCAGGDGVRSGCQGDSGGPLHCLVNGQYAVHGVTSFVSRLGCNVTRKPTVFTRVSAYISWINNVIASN

As to `CCC(NC(=O)[C@H](C)NC(=O)[C@H](C)NC(=O)OCc1ccccc1)C(=O)C(=O)OCc1ccccc1` (mixture of isomers) [Z-Ala-Ala-DL-Abu-COOBzl, Z-Ala-Ala-DL-Abu-CO2 Bzl], the Ki was 30 µM on Papain and 60 µM on Cathepsin B [1]. Moreover, the “inhibition of Calpain within platelets” value with Calpain within platelets is “significant inhibition”.

For the molecule `CCCC(NC(=O)C(C)NC(=O)C(C)NC(=O)OCc1ccccc1)C(=O)C(=O)OCC` (racemic) [Z-Ala-Ala-DL-Nva-COOEt, Z-Ala-Ala-DL-Nva-CO2 Et], the Ki came to 30 µM on Papain and 0.1 µM at Cathepsin B [1].

For `CCOC(=O)C(=O)C(C)NC(=O)[C@@H]1CCCN1C(=O)[C@H](C)NC(=O)OCc1ccccc1` (mixture of isomers) [Z-Ala-Pro-DL-Ala-COOEt, Z-Ala-Pro-DL-Ala-CO2 Et], the Ki on Papain came out at 26 µM; at Cathepsin B [1] it was 66 µM.

Regarding `CCOC(=O)C(=O)C(C)NC(=O)C(Cc1ccccc1)NC(=O)OCc1ccccc1` (racemic) [Z-Phe-DL-Ala-COOEt], the Ki at Papain is 3.6 µM; on Cathepsin B [1] it was 3.2 µM.

With `CCOC(=O)C(=O)C(Cc1ccccc1)NC(=O)C(Cc1ccccc1)NC(=O)OCc1ccccc1` (racemic) [Z-Phe-DL-Phe-COOEt], the Ki is 1.8 µM at Papain and 0.1 µM on Cathepsin B [1].

For `CCOC(=O)C(=O)C(CC)NC(=O)C(CC(C)C)NC(=O)C(CC(C)C)NS(=O)(=O)c1ccc2ccccc2c1` (stereo not drawn) [2-NapSO2 -Leu-Leu-Abu-COOEt], the Ki was 16 µM at Calpain I; 1.4 µM at Calpain II; 25 µM at Cathepsin B [2]; 35 µM at Chym; 47 µM at PP Elastase. Further, the t1/2 plasma in “Stability in plasma” was more than 60 min. Also, the “inhibition of Calpain within platelets” value in the series on Calpain within platelets is reported as “significant inhibition”. Besides, in the series on Calpain within platelets, the IC50 came out at 100 µM.

As for `CCOC(=O)C(=O)[C@H](CC)NC(=O)[C@H](CC(C)C)NC(=O)[C@H](CC(C)C)NS(=O)(=O)c1ccc(C)cc1` [Tos-Leu-Leu-Abu-COOEt], the Ki came out at 33 µM at Calpain I, 69 µM on Cathepsin B [2], 25 µM at Chym and 28 µM at PP Elastase. The t1/2 plasma in “Stability in plasma” is 30 min. Besides, the IC50 in the series on Calpain within platelets stood at 30 µM.

With `CC[C@H](NC(=O)[C@H](CC(C)C)NC(=O)OCc1ccccc1)C(=O)C(=O)OCc1ccccc1` [Z-Leu-Abu-COOBz, Z-Leu-Abu-CO2 Bzl], the inhibitory constant (Ki) at Calpain I was 9.5 µM; on Calpain II, 0.47 µM; on Cathepsin B [2], 4 µM; at Chym, 40 µM; at PP Elastase, more than 100 µM. Moreover, in the series with Calpain within platelets, the “inhibition of Calpain within platelets” value was “significant inhibition”. In addition, the “platelet assay, semi-quantitative” value in the series on Calpain within platelets is reported as “++”.

Take `CCCCOC(=O)C(=O)[C@H](Cc1ccccc1)NC(=O)[C@H](CC(C)C)NC(=O)OCc1ccccc1` [Z-Leu-Phe-COOnBu, Z-Leu-Phe-CO2 Bu]: the inhibitory constant (Ki) is 5 µM on Calpain I; 1.1 µM on Calpain II; 15 µM at Cathepsin B [2]; 0.15 µM at Chym; more than 100 µM at PP Elastase. Besides, in the series “Stability in plasma”, the t1/2 plasma was 7.7 min. Besides, in the series on Calpain within platelets, the “inhibition of Calpain within platelets” value is “significant inhibition”. In addition, in the series on Calpain within platelets, the “platelet assay, semi-quantitative” value is recorded as “+++”.

(Values after US5444042A, “Method of treatment of neurodegeneration with calpain inhibitors” (Cortex Pharmaceuticals, priority 1994, dated 1995).)
